Like-named read-outs stand apart in the source and are kept apart here.
Experiments:
Assay type in all cases: cell-based
[1] = molecular target: T1, NR2F6 (Homo sapiens, UniProt P10588); assay: NR2F6 agonist screening, Firefly signal cmpd/DMSO
T1 construct: expressed in transfected cells; also transient transfection
T1 sequence (P10588 1-404): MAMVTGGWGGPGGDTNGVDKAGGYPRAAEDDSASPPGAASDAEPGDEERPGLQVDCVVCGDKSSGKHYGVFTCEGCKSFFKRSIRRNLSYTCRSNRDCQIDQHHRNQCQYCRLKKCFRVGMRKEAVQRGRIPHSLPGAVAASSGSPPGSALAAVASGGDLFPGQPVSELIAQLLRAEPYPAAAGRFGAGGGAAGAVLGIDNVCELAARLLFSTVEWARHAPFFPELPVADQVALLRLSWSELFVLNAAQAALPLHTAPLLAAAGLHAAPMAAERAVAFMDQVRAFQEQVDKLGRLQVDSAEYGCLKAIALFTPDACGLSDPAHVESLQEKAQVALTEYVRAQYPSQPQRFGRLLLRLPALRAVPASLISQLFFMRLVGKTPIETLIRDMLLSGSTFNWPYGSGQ

[2] = tested on: Renilla; assay: Renilla signal in NR2F6 agonist screening, cmpd/DMSO; conditions: Renilla, F4
[3] = tested on: HEK293 pGL4; assay: Firefly_pGL signal, cmpd/DMSO (pGL4 control cells); conditions: Homo sapiens
[4] = molecular target: T2, NR2F6 LBD (Homo sapiens, UniProt P10588); assay: NR2F6 LBD transient transfection; conditions: LBD
T2 construct: expressed in transfected cells
T2 sequence (P10588 165-393 limits assumed): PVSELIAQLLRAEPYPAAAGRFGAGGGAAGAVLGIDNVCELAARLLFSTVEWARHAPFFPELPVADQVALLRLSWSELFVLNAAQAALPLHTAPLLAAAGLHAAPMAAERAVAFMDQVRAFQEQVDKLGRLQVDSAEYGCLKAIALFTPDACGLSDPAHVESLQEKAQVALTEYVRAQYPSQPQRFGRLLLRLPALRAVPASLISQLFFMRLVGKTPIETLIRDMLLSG
How it was run: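 LBD-transfected cells treated at 40, 10, 2 and 0.5 μM (4 replicates); cytotoxicity measured in parallel, normalized to DMSO (0%) and zero signal (100%). Higher concentrations excluded where signal loss reflected toxicity.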

[5] = read-out: Renilla, F4, cmpd/DMSO (mean)
[6] = 1% FBS, read-out: Renilla, F4, 1% FBS, cmpd/DMSO (mean)
[7] = 10% FBS, read-out: Renilla, F4, 10% FBS, cmpd/DMSO (mean)
[8] = HEK293, 0.5 uM, pGL4, read-out: Firefly pGL4, cmpd/DMSO (mean)
[9] = HEK293, 2 uM, pGL4, read-out: Firefly pGL4, cmpd/DMSO (mean)
[10] = HEK293, 10 uM, pGL4, read-out: Firefly pGL4, cmpd/DMSO (mean)
[11] = HEK293, 40 uM, pGL4, read-out: Firefly pGL4, cmpd/DMSO (mean)
[12] = HEK293, pGL4, 1% FBS, 0.5 uM, read-out: Firefly, pGL4, 1% FBS, cmpd/DMSO (mean)
[13] = HEK293, pGL4, 1% FBS, 2 uM, read-out: Firefly, pGL4, 1% FBS, cmpd/DMSO (mean)
[14] = HEK293, pGL4, 1% FBS, 10 uM, read-out: Firefly, pGL4, 1% FBS, cmpd/DMSO (mean)
[15] = HEK293, pGL4, 1% FBS, 40 uM, read-out: Firefly, pGL4, 1% FBS, cmpd/DMSO (mean)
[16] = HEK293, pGL4, 10% FBS, 0.5 uM, read-out: Firefly, pGL4, 10% FBS, cmpd/DMSO (mean)
[17] = HEK293, pGL4, 10% FBS, 2 uM, read-out: Firefly, pGL4, 10% FBS, cmpd/DMSO (mean)
[18] = HEK293, pGL4, 10% FBS, 10 uM, read-out: Firefly, pGL4, 10% FBS, cmpd/DMSO (mean)
[19] = HEK293, pGL4, 10% FBS, 40 uM, read-out: Firefly, pGL4, 10% FBS, cmpd/DMSO (mean)

With `C[C@@H]1C[C@H](C)CN([C@H]2CS(=O)(=O)C[C@@H]2S(=O)(=O)c2cccs2)C1` [Compound D109] the “Firefly F4, cmpd/DMSO (mean)” value ([1]; 0.5 uM) was 1.3, the “Firefly F4, cmpd/DMSO (mean)” value ([1]; 2 uM) was 2.3 and the “Firefly F4, cmpd/DMSO (mean)” value ([1]; 10 uM) was 4.2. For the same compound, the “Firefly F4, cmpd/DMSO (mean)” value ([1]; 40 uM) was 0.4, the “F4, Firefly/Renilla for S/B(F4) > 3” value ([1]; 1% FBS, 10 uM) was 3.1 and the “Firefly, F4/pGL4 for S/B(F4) > 3” value ([1]; 1% FBS, 10 uM) was 2.6. For the same compound, the “F4, Firefly/Renilla for S/B(F4) > 3” value ([1]; 10% FBS, 10 uM) was 3.3, the “Firefly, F4/pGL4 for S/B(F4) > 3” value ([1]; 10% FBS, 10 uM) was 3.0 and the “F4, Firefly/Renilla for S/B(F4) > 3” value ([1]; 10% FBS, 40 uM) was 1.3. The “Firefly, F4/pGL4 for S/B(F4) > 3” value ([1]; 10% FBS, 40 uM) was 2.8, the “Firefly, F4, 1% FBS, cmpd/DMSO (mean)” value ([1]; 1% FBS, 0.5 uM) was 1.5 and the “Firefly, F4, 1% FBS, cmpd/DMSO (mean)” value ([1]; 1% FBS, 2 uM) was 1.6. The “Firefly, F4, 1% FBS, cmpd/DMSO (mean)” value ([1]; 1% FBS, 10 uM) was 5.5, the “Firefly, F4, 1% FBS, cmpd/DMSO (mean)” value ([1]; 1% FBS, 40 uM) was 0.2 and the “Firefly, F4, 10% FBS, cmpd/DMSO (mean)” value ([1]; 10% FBS, 0.5 uM) was 1.3. The “Firefly, F4, 10% FBS, cmpd/DMSO (mean)” value ([1]; 10% FBS, 2 uM) was 1.4, the “Firefly, F4, 10% FBS, cmpd/DMSO (mean)” value ([1]; 10% FBS, 10 uM) was 6.5 and the “Firefly, F4, 10% FBS, cmpd/DMSO (mean)” value ([1]; 10% FBS, 40 uM) was 3.1. For the same compound, the “Activity, cmpd/DMSO” value ([1]; Table 31) was 6.2, the fold induction at 0.5 µM [2, 5] was 1.1 and the fold induction at 2 µM [2, 5] was 1.2. It also gave a fold induction at 10 µM [2, 5] of 1.6, a fold induction at 40 µM [2, 5] of 0.5 and a fold induction at 0.5 µM [2, 6] of 1. For the same compound, the fold induction at 2 µM [2, 6] was 1.3, the fold induction at 10 µM [2, 6] was 1.7 and the fold induction at 40 µM [2, 6] was 1.1. It also gave a fold induction at 0.5 µM [2, 7] of 1, a fold induction at 2 µM [2, 7] of 1.2 and a fold induction at 10 µM [2, 7] of 1.9. For the same compound, the fold induction at 40 µM [2, 7] was 2.4, the fold induction at 0.5 µM [3, 8] was 1 and the fold induction at 2 µM [3, 9] was 1.6. The fold induction at 10 µM [3, 10] was 3.6, the fold induction at 40 µM [3, 11] was 0.5 and the fold induction at 0.5 µM [3, 12] was 1.2. It also gave a fold induction at 2 µM [3, 13] of 1.3, a fold induction at 10 µM [3, 14] of 2.1 and a fold induction at 40 µM [3, 15] of 1.1. The fold induction at 0.5 µM [3, 16] was 1.4, the fold induction at 2 µM [3, 17] was 1.2 and the fold induction at 10 µM [3, 18] was 2.2. For the same compound, the fold induction at 40 µM [3, 19] was 1.1, the “Firefly LBD, cmpd/DMSO (mean)” value ([4]; 0.5 uM) was 1.1 and the “Firefly LBD, cmpd/DMSO (mean)” value ([4]; 2 uM) was 2.1. For the same compound, the “Firefly LBD, cmpd/DMSO (mean)” value ([4]; 10 uM) was 3.2 and the “Firefly LBD, cmpd/DMSO (mean)” value ([4]; 40 uM) was 0.2.
`CC(C)N[C@H]1CS(=O)(=O)C[C@@H]1S(=O)(=O)c1ccc(Cl)cc1` [Compound D118] was tested, and the “Firefly F4, cmpd/DMSO (mean)” value ([1]; 0.5 uM) was 1.6, the “Firefly F4, cmpd/DMSO (mean)” value ([1]; 2 uM) was 1.6 and the “Firefly F4, cmpd/DMSO (mean)” value ([1]; 10 uM) was 6.2. For the same compound, the “Firefly F4, cmpd/DMSO (mean)” value ([1]; 40 uM) was 2.4, the “F4, Firefly/Renilla for S/B(F4) > 3” value ([1]; 1% FBS, 10 uM) was 3.2 and the “Firefly, F4/pGL4 for S/B(F4) > 3” value ([1]; 1% FBS, 10 uM) was 2.5. For the same compound, the “F4, Firefly/Renilla for S/B(F4) > 3” value ([1]; 10% FBS, 10 uM) was 2.1, the “Firefly, F4/pGL4 for S/B(F4) > 3” value ([1]; 10% FBS, 10 uM) was 1.8 and the “F4, Firefly/Renilla for S/B(F4) > 3” value ([1]; 10% FBS, 40 uM) was 2.8. The “Firefly, F4/pGL4 for S/B(F4) > 3” value ([1]; 10% FBS, 40 uM) was 1.8, the “Firefly, F4, 1% FBS, cmpd/DMSO (mean)” value ([1]; 1% FBS, 0.5 uM) was 1.1 and the “Firefly, F4, 1% FBS, cmpd/DMSO (mean)” value ([1]; 1% FBS, 2 uM) was 1.4. For the same compound, the “Firefly, F4, 1% FBS, cmpd/DMSO (mean)” value ([1]; 1% FBS, 10 uM) was 5.2, the “Firefly, F4, 1% FBS, cmpd/DMSO (mean)” value ([1]; 1% FBS, 40 uM) was 0.5 and the “Firefly, F4, 10% FBS, cmpd/DMSO (mean)” value ([1]; 10% FBS, 0.5 uM) was 1.2. For the same compound, the “Firefly, F4, 10% FBS, cmpd/DMSO (mean)” value ([1]; 10% FBS, 2 uM) was 1.3, the “Firefly, F4, 10% FBS, cmpd/DMSO (mean)” value ([1]; 10% FBS, 10 uM) was 5.1 and the “Firefly, F4, 10% FBS, cmpd/DMSO (mean)” value ([1]; 10% FBS, 40 uM) was 15. For the same compound, the fold induction at 0.5 µM [2, 5] was 1.1, the fold induction at 2 µM [2, 5] was 1.3 and the fold induction at 10 µM [2, 5] was 1.7. For the same compound, the fold induction at 40 µM [2, 5] was 1.9, the fold induction at 0.5 µM [2, 6] was 1 and the fold induction at 2 µM [2, 6] was 1.1. The fold induction at 10 µM [2, 6] was 1.6, the fold induction at 40 µM [2, 6] was 2.3 and the fold induction at 0.5 µM [2, 7] was 1.2. The fold induction at 2 µM [2, 7] was 1.5, the fold induction at 10 µM [2, 7] was 2.5 and the fold induction at 40 µM [2, 7] was 5.2. For the same compound, the fold induction at 0.5 µM [3, 8] was 1.2, the fold induction at 2 µM [3, 9] was 1.5 and the fold induction at 10 µM [3, 10] was 4.8. The fold induction at 40 µM [3, 11] was 0.4, the fold induction at 0.5 µM [3, 12] was 0.9 and the fold induction at 2 µM [3, 13] was 1.2. The fold induction at 10 µM [3, 14] was 2.1, the fold induction at 40 µM [3, 15] was 0.9 and the fold induction at 0.5 µM [3, 16] was 1.2. For the same compound, the fold induction at 2 µM [3, 17] was 1.2, the fold induction at 10 µM [3, 18] was 2.9 and the fold induction at 40 µM [3, 19] was 8.1. The “Firefly LBD, cmpd/DMSO (mean)” value ([4]; 0.5 uM) was 1.2, the “Firefly LBD, cmpd/DMSO (mean)” value ([4]; 2 uM) was 1.8 and the “Firefly LBD, cmpd/DMSO (mean)” value ([4]; 10 uM) was 3.8. The “Firefly LBD, cmpd/DMSO (mean)” value ([4]; 40 uM) was 0.4.
